Experimental data from patent US20250034116A1, “1,4-DIHETEROCYCLIC SUBSTITUTED AROMATIC RING OR AROMATIC HETEROCYCLIC COMPOUND AND USE THEREOF” (BeBetter Med Inc., priority 2022, published 2025).
Read-outs that look alike come from different tables or passages of the source.

Legend:
[1] = tested on: diet-induced obesity (DIO) mouse model; experiment: Experiment 4: weight loss of compound 2 compared with semaglutide in DIO mouse model; assay type: in vivo, Male C57BL/6J mice; conditions: 30 nmol/kg subcutaneously once daily
Excerpt: Experiment 4 was to compare the weight loss effects of compound 2 with that of semaglutide in a diet-induced obesity (DIO) mouse model. Male C57BL/6J mice were purchased from Vital River Laboratories (Shanghai) Co., Ltd. and housed in a barrier system animal facility. Animals were randomly divided into 4 groups: normal control group, DIO model control group, compound 2 treatment group, and semaglutide treatment group, with 6 animals per group. The model control group and treatment groups were first fed with high-fat diet (HFD) for 18 weeks, after which the treatment groups were administered with compound 2 or semaglutide, respectively. Compound 2 was administered orally at a dose of 30 mg/kg once daily for 14 consecutive weeks, while semaglutide was administered subcutaneously at a dose of 30 nmol/kg once daily. After 7 weeks of semaglutide treatment, the semaglutide treatment group was switched to compound 2 treatment for another 7 weeks.

[2] = cited from earlier work
[3] = tested on: Cyp4a 14−/− hypertensive mice; conditions: Cyp4a14−/− hypertensive mice; cited from earlier work
Cyp4a14−/− mice = conditions: cited from earlier work
20-HETE = conditions: read-out: inhibitory activity (inhibitor of 20-HETE); cited from earlier work
[4] = tested on: cyclooxygenase and lipoxygenase; conditions: cited from earlier work
[5] = cited from earlier work; remark: listed apart in the source
[6] = tested on: CYP enzymes in human liver microsomes (HLM); experiment: Inhibition of 20-HETE production in human liver microsomes (HLM); assay type: biochemical
How it was run: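 Liver microsomes (human or mouse) or recombinant CYP4F2 or CYP4A11 in potassium phosphate buffer mixed with compound, then with 400 μM substrate solution (stock). After 10 min preincubation at 37 °C, reaction started with 6 mM NADPH solution (stock) and run 25 min at 37 °C. 20-HETE formation quantified by LC-MS/MS; IC50 from a four-parameter Hill fit, with percent inhibition also reported at 1000, 500 or 100 nM.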

[7] = tested on: CYP enzymes in rat liver microsomes (RLM); experiment: Inhibition of 20-HETE production in rat liver microsomes (RLM); assay type: biochemical
How it was run: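 Test compounds were dissolved in DMSO, diluted in acetonitrile/DMSO (3:1), and 2 μl was mixed with 100 μl potassium phosphate buffer containing rat liver microsomes in a 96-well plate. Duplicate 30 μl aliquots received 15 μl of 400 μM substrate, were preheated at 37° C. for 10 minutes, then started with 15 μl of 6 mM NADPH for 25 minutes. LC-MS/MS measured 20-HETE formation.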

[8] = tested on: CYP enzymes in mouse liver microsomes (MLM); experiment: Inhibition of 20-HETE production in mouse liver microsomes (MLM); assay type: biochemical
Method: (§1) Experimental principle: The inhibitory activity of 20-HETE production is evaluated by testing the inhibitory effects of the compound on human liver microsomes (HLM), rat liver microsomes (RLM), mouse liver microsomes (MLM), or […] CYP4 subtype enzymes (CYP4F2). This assay employs HLM, RLM, or MLM along with recombinant CYP4F2 (rCYP4F2) and recombinant CYP4A11 (rCYP4A11), which are […] CYP4 subtype enzymes, to detect the effects of the test compound at different concentrations on the metabolic rate of enzyme-specific substrates, to determine the inhibitory effects of the test compound on CYP enzymes in HLM, RLM, or MLM.
(§2) Experimental methods: Dissolve the test compound in DMSO, and subsequently dilute it with an acetonitrile and DMSO mixture (3:1). Add 2 μl of varying concentrations of the test compound and 100 μl of potassium phosphate buffer containing either liver microsomes or recombinant enzymes to a 96-well plate. After mixing well, transfer 30 μl to another well (in duplicate), add 15 μl of 400 μM substrate solution, and mix well again. Preheat at 37° C. for 10 minutes, and then add 15 μl of 6 mM NADPH and incubate at 37° C. for 25 minutes. After 25 minutes, add 160 μl of acetonitrile solution (containing 0.1 μg/ml internal standard) to stop the reaction. Mix well, centrifuge at 3500 g for 15 minutes, and then analyze the supernatant using LC-MS/MS.
(§3) Plot the compound concentration on the x-axis and the inhibition rate on the y-axis to draw the curve. Use GraphPad Prism 5 software to fit the curve and calculate the IC50. The formula is Y=Bottom+(Top−Bottom)/(1+10^((Log IC50−X)×HillSlope)). X represents the logarithmic concentration of the inhibitor, and Y represents the relative enzyme activity at a given inhibitor concentration (relative to the condition without the inhibitor).
(§4) Calculate the inhibition percentages at concentrations of 1000 nM, 500 nM, or 100 nM as well as the half-maximal inhibitory concentration (IC50) of the test compound from the above experiment.

[9] = target: recombinant CYP4F2 (rCYP4F2) (Homo sapiens (Human), UniProt P78329); experiment: Inhibition of 20-HETE production by recombinant CYP4F2; assay type: biochemical; conditions: for inhibition at 0.1 µM: read-out: rCYP4F2 (% inh @ 100 nM)
Method: as §1, §2, §3, §4

[10] = target: recombinant CYP4A11 (rCYP4A11) (Homo sapiens (Human), UniProt Q02928); experiment: Inhibition of 20-HETE production by recombinant CYP4A11; assay type: biochemical; conditions: for inhibition at 0.1 µM: read-out: rCYP4A11 (% inh @ 100 nM)
Method: as §1, §2, §3, §4

[11] = Pharmacokinetic (PK) experiment, oral administration in rats; assay type: in vivo, Male SD rats; conditions: 20 mg/kg; for AUC(0-inf) / Cmax / Tmax / half-life / AUC(0-t): male, SD, rat, plasma; for AUC(0-t): read-out: AUC0-24
How it was run: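 Fasted male SD rats (180-250 g) received 20 mg/kg orally in 30% sulfobutylether-β-cyclodextrin. Tail-vein blood sampled 15 min to 24 h post-dose into K2-EDTA; plasma protein-precipitated with acetonitrile containing internal standard and analysed by LC-MS/MS.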

[12] = tested on: diet-induced obesity (DIO) mouse model; experiment: Experiment 1: compound 1, weight loss and blood glucose lowering in DIO mouse model; assay type: in vivo, Male C57BL/6J mice
Method: Experiment 1 was to investigate the effects of compound 1 on weight loss and blood glucose lowering in a diet-induced obesity (DIO) mouse model. Male C57BL/6J mice were purchased from Zhuhai BST Biotechnology Co., Ltd. and housed in a barrier system animal facility. The animals were randomly divided into 3 groups: normal control group, DIO model control group, and DIO model compound 1 treatment group, with 6 animals per group. The treatment group received compound 1 orally at a dose of 100 mg/kg on the first day of high-fat diet (HFD) feeding, once daily for 32 consecutive days. Animal weights were measured weekly, and on day 33, they were fasted overnight but allowed access to water before an oral glucose tolerance test (OGTT).

[13] = tested on: diet-induced obesity (DIO) mouse model; experiment: Experiment 2: compound 2 and 4, weight loss and blood glucose lowering in DIO mouse model; assay type: in vivo, Male C57BL/6J mice
Excerpt: Experiment 2 was to study the effects of compound 2 and 4 on weight loss and blood glucose lowering in a diet-induced obesity (DIO) mouse model. Male C57BL/6J mice were purchased from Zhuhai BST Biotechnology Co., Ltd. and housed in a barrier system animal facility. Animals were randomly divided into 4 groups: normal control group, DIO model control group, DIO model compound 2 treatment group, and DIO model compound 4 treatment group, with 4-5 animals per group. The model control group and treatment groups were first fed with high-fat diet (HFD) for 9 weeks (day 63), and then the treatment groups were orally administered with compound 2 or compound 4 at a dose of 50 mg/kg once daily for 4 consecutive weeks, while continuing to receive HFD. Animal weights were measured weekly, and on the last day of treatment, they were fasted overnight but allowed access to water before an oral glucose tolerance test (OGTT).

[14] = 50 mg/kg orally once daily for 4 weeks, DIO mice

Chain of recombinant CYP4A11 (rCYP4A11) (Q02928 5-519): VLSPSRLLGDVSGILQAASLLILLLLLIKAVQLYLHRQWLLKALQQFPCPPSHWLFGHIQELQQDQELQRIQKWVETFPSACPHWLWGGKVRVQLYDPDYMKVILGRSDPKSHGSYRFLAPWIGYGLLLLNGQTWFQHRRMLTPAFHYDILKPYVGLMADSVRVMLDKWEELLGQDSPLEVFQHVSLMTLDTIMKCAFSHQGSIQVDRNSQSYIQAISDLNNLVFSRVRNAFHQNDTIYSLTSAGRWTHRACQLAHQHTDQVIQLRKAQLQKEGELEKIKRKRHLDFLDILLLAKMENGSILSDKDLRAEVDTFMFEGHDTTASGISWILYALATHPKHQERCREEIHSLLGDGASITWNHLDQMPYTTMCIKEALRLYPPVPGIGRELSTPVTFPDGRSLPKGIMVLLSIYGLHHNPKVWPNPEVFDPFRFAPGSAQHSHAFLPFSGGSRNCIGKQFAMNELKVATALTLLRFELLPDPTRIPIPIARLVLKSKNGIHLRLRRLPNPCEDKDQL
Chain of recombinant CYP4F2 (rCYP4F2) (P78329 5-520): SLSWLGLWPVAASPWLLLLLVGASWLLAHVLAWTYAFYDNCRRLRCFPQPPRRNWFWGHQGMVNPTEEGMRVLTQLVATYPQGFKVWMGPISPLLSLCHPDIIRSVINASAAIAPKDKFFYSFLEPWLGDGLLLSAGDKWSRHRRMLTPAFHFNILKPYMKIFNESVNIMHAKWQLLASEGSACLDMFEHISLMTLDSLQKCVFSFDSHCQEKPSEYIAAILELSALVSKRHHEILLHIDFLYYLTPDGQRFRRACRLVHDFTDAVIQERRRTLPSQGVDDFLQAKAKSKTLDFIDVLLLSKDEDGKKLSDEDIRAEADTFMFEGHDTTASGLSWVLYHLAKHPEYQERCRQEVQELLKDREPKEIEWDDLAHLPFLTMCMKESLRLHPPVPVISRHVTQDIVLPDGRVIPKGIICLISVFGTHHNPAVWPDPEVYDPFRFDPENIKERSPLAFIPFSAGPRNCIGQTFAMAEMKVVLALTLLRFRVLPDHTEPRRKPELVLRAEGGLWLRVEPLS

HLM (% inh @ 500 nM) [6] [%] | IC50 [7] [nM] | RLM (% inh @ 500 nM) [7] [%] | IC50 [8] [nM] | inhibition at 0.1 µM [9] [%] | inhibition at 0.1 µM [10] [%] | AUC(0-inf) [11] [ng·h/mL] | Cmax [11] [ng/mL] | Tmax [11] [h] | half-life [11] [h] | AUC(0-t) [11] [ng·h/mL] | IC50 [6] [nM] | IC50 [9] [nM] | Molecule | absorption and blood exposure after oral administration (in words) [11] | also measured
 |  |  |  |  |  |  |  |  |  |  |  |  | semaglutide [reference compound] |  | maximum weight-loss effect, decrease compared to the pre-treatment weight ([1]; after 2 weeks): approximately 20%; food intake, fraction of the model control group ([1]; first 2 weeks): ⅓ to ½
 |  |  |  |  |  |  |  |  |  |  |  |  | COCCOCCOCCOCCOCCOCCOC(=O)CCCC/C=C\CCCCCCC/C=C\CCCCO [Compound 20-SOLA] |  | solubility [2]: more water-soluble; blood pressure [3]: restore blood pressure to normal; hyperglycemia and hyperinsulinemia (Cyp4a14−/− mice): improve hyperglycemia and hyperinsulinemia; weight gain induced by a high-fat diet (Cyp4a14−/− mice): reduce the weight gain
 |  |  |  |  |  |  |  |  |  |  |  |  | CCCCc1ccc(N=CNO)c(C)c1 [HET0016] |  | IC50 (20-HETE): 8.9 nM; effect on the activity of cyclooxygenase and lipoxygenase [4]: no effect; solubility [2]: poor; half-life [5]: short
89.67 | 124 | 63.62 | 1670 | 78 | 53.9 | 40500 | 7150 | 1.67 | 2.93 | 40300 |  |  | O=C1CCCCN1CC1CCN(c2ccc(-c3cn[nH]c3)c(F)c2F)CC1 [Compound 26, 1-((1-(2,3-difluoro-4-(1H-pyrazol-4-yl)phenyl)piperidin-4-yl)methyl)piperidin-2-one] | well absorbed and exhibit high blood exposure | 
81.03 | 44.2 | 66.71 | 946 | 71.1 |  | 124000 | 9270 | 2.67 | 8.11 | 103000 | 28.1 | 24.9 | O=C1CCCN1CC1CCN(c2c(F)cc(-c3cn[nH]c3)cc2F)CC1 [Compound 5, 1-((1-(2,6-difluoro-4-(1H-pyrazol-4-yl)phenyl)piperidin-4-yl)methyl)pyrrolidin-2-one] | well absorbed and exhibit high blood exposure | IC50 [10]: 39.6 nM
79.83 | 224 | 54.99 | 1220 | 59.5 | 35.4 | 125000 | 9980 | 1.5 | 7.23 | 113000 |  | 24 | O=C1CCCN1CC1CCN(c2ccc(-c3cn[nH]c3)cc2)CC1 [Compound 1, 1-((1-(4-(1H-pyrazol-4-yl)phenyl)piperidin-4-yl)methyl)pyrrolidin-2-one] | well absorbed and exhibit high blood exposure | body weight ([12]; 100 mg/kg orally once daily for 32 days from first day of HFD): stabilized around the initial weight after 1 week and remained stable thereafter; fasting blood glucose ([12]; 100 mg/kg orally once daily for 32 days, DIO mice): inhibit the increase in fasting blood glucose; glucose metabolism (OGTT) ([12]; 100 mg/kg orally once daily for 32 days, OGTT day 33): enhance glucose metabolism
85.53 | 89.5 | 72.00 | 1350 | 61.7 |  | 59000 | 7260 | 1.33 | 3.9 | 58100 | 25.8 | 18.8 | O=C1CCCN1CC1CCN(c2ccc(-c3cn[nH]c3)c(F)c2F)CC1 [Compound 4, 1-((1-(2,3-difluoro-4-(1H-pyrazol-4-yl)phenyl)piperidin-4-yl)methyl)pyrrolidin-2-one] | well absorbed and exhibit high blood exposure | IC50 [10]: 53.7 nM; fasting blood glucose [13, 14]: inhibit the increase in fasting blood glucose; glucose metabolism (OGTT) [13, 14]: enhance glucose metabolism; body weight decrease, of the pre-administration weight ([13]; 50 mg/kg orally once daily, first week of administration, after 9 weeks HFD): 12%-16%
89.89 | 4.9 |  | 135 | 79.2 | 65.5 | 69000 | 7320 | 3 | 2.57 | 68800 | 19.4 |  | O=C(C1CCCC1)N1CCC(c2ccc(-c3cn[nH]c3)cc2)CC1 [Compound 70, (4-(4-(1H-pyrazol-4-yl)phenyl)piperidin-1-yl)(cyclopentyl) methanone] | well absorbed and exhibit high blood exposure | 
